Results published in patent US8802711B2, “TRPV1 antagonists” (AbbVie Inc., priority 2011, dated 2014).

Legend:
[1] = biological target: T1, human TRPV1 receptor (hTRPV1) (Homo sapiens (Human), UniProt Q8NER1); assay: Acid activation assay (pH 5.0, FLIPR intracellular Ca2+); format: cell-based; conditions: Table 1; 37.5 μM antagonist, percentage of the maximal pH 5.0-induced response remaining; read-out: hTRPV1 H+ (max % remain)
In short: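 Antagonism of acid-evoked Ca2+ influx measured by FLIPR Calcium-4 fluorescence after a pH 5.0 DPBS/MES stimulus, with compounds preincubated 3 min over 12 half-log concentrations. Cells: stable hTRPV1-expressing 1321N1 line, dye-loaded 90–120 min in the dark at 25 °C.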

[2] = biological target: T1, human TRPV1 receptor (hTRPV1); assay: Capsaicin activation assay (FLIPR intracellular Ca2+); format: cell-based; conditions: Table 1; inhibition of capsaicin-induced intracellular Ca2+ increase, HEK293 cells expressing human TRPV1; read-out: hTRPV1 cap IC50
In short: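 Antagonism measured as [Ca2+]i fluorescence on FLIPR Tetra: compounds given 3 min ahead of capsaicin, added as 200 nM (4×), to dye-loaded hTRPV1-HEK293 cells. Response taken as baseline-subtracted peak, normalized to the 50 nM capsaicin control; 12-point one-third-log titrations.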

T1 sequence (Q8NER1 whole entry): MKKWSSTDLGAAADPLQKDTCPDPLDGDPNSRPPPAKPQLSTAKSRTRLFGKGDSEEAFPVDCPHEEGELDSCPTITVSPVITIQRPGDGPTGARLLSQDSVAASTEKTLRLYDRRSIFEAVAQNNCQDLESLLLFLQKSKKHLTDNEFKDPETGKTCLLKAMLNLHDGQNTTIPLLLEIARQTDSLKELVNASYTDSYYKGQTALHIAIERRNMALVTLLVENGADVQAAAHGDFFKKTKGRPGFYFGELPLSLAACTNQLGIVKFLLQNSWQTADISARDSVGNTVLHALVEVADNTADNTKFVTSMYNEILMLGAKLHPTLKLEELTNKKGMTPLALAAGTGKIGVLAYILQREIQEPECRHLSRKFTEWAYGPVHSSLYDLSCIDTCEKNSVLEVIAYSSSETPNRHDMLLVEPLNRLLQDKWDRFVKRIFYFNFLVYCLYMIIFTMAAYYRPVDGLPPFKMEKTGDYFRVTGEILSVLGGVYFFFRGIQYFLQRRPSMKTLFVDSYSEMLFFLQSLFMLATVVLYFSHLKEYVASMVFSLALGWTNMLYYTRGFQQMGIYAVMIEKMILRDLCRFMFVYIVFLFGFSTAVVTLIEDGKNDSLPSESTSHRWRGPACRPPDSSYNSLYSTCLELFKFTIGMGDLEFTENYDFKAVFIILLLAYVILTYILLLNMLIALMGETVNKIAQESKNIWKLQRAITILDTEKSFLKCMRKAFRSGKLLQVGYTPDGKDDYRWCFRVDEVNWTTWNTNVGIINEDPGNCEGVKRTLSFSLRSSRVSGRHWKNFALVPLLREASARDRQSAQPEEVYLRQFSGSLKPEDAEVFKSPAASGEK

Cc1nc(N)cc2c(NC(=O)N[C@@H]3CC[C@H](c4ccccc4)C3)cccc12 [Example 141, 1-(3-amino-1-methylisoquinolin-5-yl)-3-[(1R,3S)-3-phenylcyclopentyl]urea]
remaining activity at 37.5 µM [1]: 82%
IC50 [2]: > 37500 nM

O=C1CCc2ccc(NC(=O)N[C@@H]3CC[C@@H](c4ccccc4)C3)cc2N1 [Example 19, 1-(2-oxo-1,2,3,4-tetrahydroquinolin-7-yl)-3-[(1R,3R)-3-phenylcyclopentyl]urea]
remaining activity at 37.5 µM [1]: 81%
IC50 [2]: > 37500 nM

O=C(Nc1cccc2c1C[C@H](O)C2)N[C@@H]1CC[C@@H](c2ccccc2)C1 [Example 15, 1-[(2R)-2-hydroxy-2,3-dihydro-1H-inden-4-yl]-3-[(1R,3R)-3-phenylcyclopentyl]urea]
remaining activity at 37.5 µM [1]: 20%
IC50 [2]: 179 nM

Cc1cc2c(NC(=O)N[C@@H]3CC[C@H](c4nc(C)cs4)C3)c(F)ccc2cn1 [Example 132, 1-(6-fluoro-3-methylisoquinolin-5-yl)-3-[(1R,3S)-3-(4-methyl-1,3-thiazol-2-yl)cyclopentyl]urea]
remaining activity at 37.5 µM [1]: 40%
IC50 [2]: 324 nM

O=C(Nc1cccc2c1C[C@@H](O)CC2)N[C@@H]1CC[C@H](c2ccccc2)C1 [Compound C, 1-[(7S)-7-hydroxy-5,6,7,8-tetrahydronaphthalen-1-yl]-3-[(1R,3S)-3-phenylcyclopentyl]urea, reference compound]
remaining activity at 37.5 µM [1]: 2%
IC50 [2]: 5 nM

O=C(Nc1cccc2[nH]ncc12)N[C@H]1C[C@@H](c2ccccc2)[C@@H](O)[C@H]1O [Example 52, 1-((1S,2S,3R,4S)-2,3-dihydroxy-4-phenylcyclopentyl)-3-(1H-indazol-4-yl)urea]
remaining activity at 37.5 µM [1]: 67%
IC50 [2]: 22400 nM

C[C@H]1Oc2c(NC(=O)N[C@H]3CC[C@@H](c4ccccc4)C3)cccc2NC1=O [Example 24, 1-[(2R)-2-methyl-3-oxo-3,4-dihydro-2H-1,4-benzoxazin-8-yl]-3-[(1S,3R)-3-phenylcyclopentyl]urea]
remaining activity at 37.5 µM [1]: 1%
IC50 [2]: 85 nM

O=C(Nc1cccc2[nH]ncc12)N[C@@H]1CC[C@@H](c2ccc(C(F)(F)F)cc2)C1 [Example 44, 1-(1H-indazol-4-yl)-3-{(1R,3R)-3-[4-(trifluoromethyl)phenyl]cyclopentyl}urea]
remaining activity at 37.5 µM [1]: 13%
IC50 [2]: 169 nM

O=C(Nc1cccc2[nH]ncc12)N[C@H]1CC[C@H](c2ccc(C(F)(F)F)cc2)C1 [Example 41, 1-(1H-indazol-4-yl)-3-{(1S,3S)-3-[4-(trifluoromethyl)phenyl]cyclopentyl}urea]
remaining activity at 37.5 µM [1]: 1%
IC50 [2]: 311 nM

O=C(Nc1cccc2c1C[C@@H](O)C2)N[C@H]1CC[C@@H](c2cccc(F)c2)C1 [Example 87, 1-[(1S,3R)-3-(3-fluorophenyl)cyclopentyl]-3-[(2S)-2-hydroxy-2,3-dihydro-1H-inden-4-yl]urea]
remaining activity at 37.5 µM [1]: 17%
IC50 [2]: 248 nM

O=C(Nc1cccc2c1C[C@@H](O)C2)N[C@@H]1CC[C@@H](c2ccccc2)C1 [Example 16, 1-[(2S)-2-hydroxy-2,3-dihydro-1H-inden-4-yl]-3-[(1R,3R)-3-phenylcyclopentyl]urea]
remaining activity at 37.5 µM [1]: 87%
IC50 [2]: 80 nM

O=C(Nc1cccc2c1C[C@H](O)CC2)N[C@@H]1CC[C@@H](c2ccccc2)C1 [Compound E, 1-[(7R)-7-hydroxy-5,6,7,8-tetrahydronaphthalen-1-yl]-3-[(1R,3R)-3-phenylcyclopentyl]urea, reference compound]
remaining activity at 37.5 µM [1]: 1%
IC50 [2]: 5 nM

CN1C(=O)CCc2ccc(NC(=O)N[C@@H]3CC[C@H](c4ccccc4)C3)cc21 [Example 77, 1-(1-methyl-2-oxo-1,2,3,4-tetrahydroquinolin-7-yl)-3-[(1R,3S)-3-phenylcyclopentyl]urea]
remaining activity at 37.5 µM [1]: 56%
IC50 [2]: > 37500 nM
